The record followed here is PMC9108603, “Microbial Metabolite Inspired β‐Peptide Polymers Displaying Potent and Selective Antifungal Activity” (Advanced Science, 2022).

Data set [1] has as its system C. albicans. Put plainly: MFC assay, plating after the MIC test. Note: kills > 99.9%. Type of data set: cell-based. The settings on record: Candida albicans. As for the experimental part: (§1) In vitro antifungal assays. The MIC assays for C. albicans (K1, SC5314, Gu5, ATCC90028, R01, R02, R03 and R04 strains) and C. neoformans (H99, MYA737 and JEC21 strains) were conducted according to a previously described protocol. The cultured fungal cells were collected at 2.5 × 10^3 CFU/mL in RPMI 1640 medium to give the working suspension. Two- […]
(§2) Then 50 µL of the cell suspension was added to each well. Wells containing cells in RPMI without any polymer or antifungal drug were used as drug-free controls, and wells containing RPMI medium only were used as cell-free controls. The plate was gently stirred for 10 seconds and then incubated at 30 °C. After C. albicans and C. neoformans cells were incubated for 24 h and 48 h, respectively, fungal cell growth was checked visually. The MIC values were identified as the lowest concentration […]
(§3) The MFC assay for Candida and Cryptococcus was conducted after the MIC test.
(§4) An aliquot of 3 µL premixed suspension from each well was plated on the yeast extract-peptone-dextrose (YPD) agar. The plates were incubated at 30 °C for 24 h and 48 h, respectively, for C. albicans cells and C. neoformans cells. Then the plate was inspected visually for colony formation. […]

Data set [2] has as its system C. neoformans. Description: MFC assay, plating after the MIC test. Note: kills > 99.9%. Particulars: Cryptococcus neoformans, 48 h. Type of data set: cell-based. As for the experimental part:
as §1, §2, §3, §4

The subject of data set [3] is C. albicans. Put plainly: MIC assay (in vitro antifungal assay). Type of data set: cell-based, Candida albicans. As for the experimental part:
as §1
Then 50 µL of the cell suspension was added to each well. Wells containing cells in RPMI without any polymer or antifungal drug were used as drug-free controls, and wells containing RPMI medium only were used as cell-free controls. The plate was gently stirred for 10 seconds and then incubated at 30 °C. After C. albicans and C. neoformans cells were incubated for 24 h and 48 h, respectively, fungal cell growth was checked visually. […]

Data set [4] relates to C. neoformans. Description: MIC assay (in vitro antifungal assay). Type of data set: cell-based. The settings on record: Cryptococcus neoformans, 48 h. As for the experimental part:
as §1
plate to give 50 µL compound solution in each well. Then 50 µL of the cell suspension was added to each well. Wells containing cells in RPMI without any polymer or antifungal drug were used as drug-free controls, and wells containing RPMI medium only were used as cell-free controls. The plate was gently stirred for 10 seconds and then incubated at 30 °C. After C. albicans and C. neoformans cells were incubated for 24 h and 48 h, respectively, fungal cell growth was checked visually. […]

The test system of a further data set is C. albicans (R02 strain). Description: microbe, parasite or virus in culture. Type of data set: cell-based, Candida albicans. Particulars: for MIC50: Candida albicans. As for the experimental part: Drug resistance studies. Drug resistance was induced by treating the C. albicans (R02 strain) repeatedly with antifungal agents. […]
albicans were tested for 30 passages of growth, which is long enough and adopted by many studies. C. albicans exposed to the 1/2 MIC concentration at the particular passage were re-grown to a logarithmic growth phrase and re-used for the subsequent passage’s MIC measurement for the same antifungal agent. Drug-resistant behavior of C. albicans was evaluated by recording the changes in the MIC compared to the original passage. All measurements were performed in duplicates. […]

The test system of the next data set is various mammalian cells. Description: Cytotoxicity, MTT assay, summary over cell types. Type of data set: cell-based. The settings on record: NIH 3T3, HUVEC, RAW264.7, LO2, COS7, NCM‐460, 24 h. As for the experimental part: (§5) Cytotoxicity assay. Cytotoxicity tests were performed on NIH 3T3 fibroblast cells, endothelial cells (HUVEC), macrophage (RAW264.7), liver cells (LO2), kidney cells (COS7) and enterocyte (NCM-460) using MTT assay. Cells were cultured in DMEM supplemented with 10% FBS, 5% penicillin, 2 mM L-glutamine and incubated at 37 °C in 5% CO 2. Cells were harvested and seeded onto 96-well plates at a density of 1.0 × 10^4 cells per well and incubated for 24 h. On each plate, wells containing growth medium only and cells in growth medium without any antifungal agent were used as the negative and positive control, […]
(§6) concentrations ranging from 800 to 1.6 μg/mL. Medium in each cell-containing well was replaced with 100 μL of the corresponding polymer solution, and the plates were incubated at 37 °C for 24 h. Then, the solution in each well was switched to 100 µL MTT solution (1 mg/mL) and the plate was incubated in the dark at 37 °C for 4 h. […] Then 85 µL of the supernatant from each well was transferred to the corresponding well in a new plate, followed by absorbance measurement at 570 nm on a plate reader. […] The percentage of cell viability in each test well, relative to the positive control (which defines 100%) w as calculated from [% fibroblast growth = (A polymer – Ablank)/(Acontrol – A blank) × 100]. […]
In general terms: Tetrazolium dyes change colour on reduction, which living cells bring about.

For a further data set, the system named is human red blood cells. Description: Hemolysis assay. The settings on record: human RBCs in TBS pH 7.2, 37 °C, 1 h, OD 405 nm, 2000 to 15.6 μg/mL, Triton X-100 as 100%. As for the experimental part:
(§7) aforementioned antifungal assay. Gram-positive bacteria ( S. aureus ATCC 6538, S.
The positive controls used in
Then, 100 μL of the RBC working
Molecular Devices Emax precision microplate reader. Measurements were performed in duplicate and repeated on three different days. The percentage of hemolysis at each polymer […]
and plotted against polymer concentration to give the dose-response curves for hemolysis for each polymer. The HC 10 value for each polymer was defined as the polymer concentration to cause 10% lysis of RBCs. All measurements were performed with three replicates.
Cytotoxicity assay. Cytotoxicity tests were performed on NIH 3T3 fibroblast cells, endothelial cells (HUVEC), macrophage (RAW264.7), liver cells (LO2), kidney cells (COS7) and enterocyte (NCM-460) using MTT assay. Cells were cultured in DMEM supplemented with 10% FBS, 5% penicillin, 2 mM L-glutamine and incubated at 37 °C in 5% CO 2. […]
concentrations ranging from 800 to 1.6 μg/mL. […] Then 85 µL of the supernatant from each well was transferred to the corresponding well in a new plate, followed by absorbance measurement at 570 nm on a plate reader. […] The percentage of cell viability in each test well, relative to the positive control (which defines 100%) w as calculated from [% fibroblast growth = (A polymer – Ablank)/(Acontrol

Data set [5] has as its system endothelial cells (HUVEC). Description: Cytotoxicity, MTT assay. The settings on record: 24 h, 37 °C, 800 to 1.6 μg/mL, 50% cell viability. Type of data set: cell-based, human. As for the experimental part:
as §5, §6

Another data set deals with E. coli ATCC 25922. Description: Antibacterial MIC test. Type of data set: cell-based. Particulars: 1.0 × 10^5 CFU/mL in MH medium.
From the text: as §7

The subject of another data set is A. Baumannii ATCC 747. Description: Antibacterial MIC test. Type of data set: cell-based. The settings on record: 1.0 × 10^5 CFU/mL in MH medium.
From the text: as §7

Data set [6] relates to K. pneumoniae ATCC 700603. Put plainly: Antibacterial MIC test. Type of data set: cell-based. The settings on record: 1.0 × 10^5 CFU/mL in MH medium.
From the text: as §7

In data set [7] the test system is S. epidermidis ATCC 49134. Description: Antibacterial MIC test. Particulars: 1.0 × 10^5 CFU/mL in MH medium. Type of data set: cell-based.
From the text: as §7

The subject of another data set is S. aureus ATCC 6538. Put plainly: Antibacterial MIC test. Type of data set: cell-based. The settings on record: 1.0 × 10^5 CFU/mL in MH medium.
From the text: as §7

Another data set relates to B. subtilis BR151. Description: Antibacterial MIC test. Particulars: 1.0 × 10^5 CFU/mL in MH medium. Type of data set: cell-based.
From the text: as §7

For data set [8], the system named is Gram‐positive and Gram‐negative bacteria. Description: Antibacterial MIC test, summary over six bacteria. Particulars: S. aureus, S. epidermidis, B. subtilis, E. coli, A. baumannii, K. pneumoniae. Type of data set: cell-based.
From the text: as §7

Converted amounts (≈) assume the structure as drawn. Like-named read-outs stand apart in the source and are kept apart here.

For the compound `OC(Cn1cncn1)(Cn1cncn1)c1ccc(F)cc1F` [fluconazole], the MFC was > 200 µg/mL in the data set with C. albicans [1] (24 h, read-out: MFC C. albicans Gu5); > 200 µg/mL in the data set with C. albicans [1] (24 h, read-out: MFC C. albicans K1); > 200 µg/mL in the data set with C. albicans [1] (24 h, read-out: MFC C. albicans R01); > 200 µg/mL with C. albicans [1] (24 h, read-out: MFC C. albicans R02); > 200 µg/mL with C. albicans [1] (24 h, read-out: MFC C. albicans R03); > 200 µg/mL in the data set with C. albicans [1] (24 h, read-out: MFC C. albicans R04). Moreover, the MFC is > 200 µg/mL in the data set with C. albicans [1] (ATCC90028, 24 h, read-out: MFC C. albicans ATCC90028); > 200 µg/mL in the data set with C. albicans [1] (SC5314, 24 h, read-out: MFC C. albicans SC5314); 6.3 µg/mL (≈ 20.6 µM) in the data set on C. neoformans [2] (read-out: MFC C. neoformans H99); 12.5 µg/mL (≈ 40.8 µM) in the data set with C. neoformans [2] (read-out: MFC C. neoformans JEC21); 6.3 µg/mL (≈ 20.6 µM) in the data set on C. neoformans [2] (read-out: MFC C. neoformans MYA737). The MIC50 in the data set with C. albicans [3] (Candida albicans, 24 h, read-out: MIC50 (used for fluconazole) C. albicans Gu5) is 200 µg/mL (≈ 653 µM); in the data set with C. albicans [3] (Candida albicans, 24 h, read-out: MIC50 (used for fluconazole) C. albicans K1) it was 0.4 µg/mL (≈ 1.31 µM); in the data set on C. albicans [3] (Candida albicans, 24 h, read-out: MIC50 (used for fluconazole) C. albicans R01), 0.4 µg/mL (≈ 1.31 µM); in the data set on C. albicans [3] (Candida albicans, 24 h, read-out: MIC50 (used for fluconazole) C. albicans R02), 0.4 µg/mL (≈ 1.31 µM); with C. albicans [3] (Candida albicans, 24 h, read-out: MIC50 (used for fluconazole) C. albicans R03), 0.2 µg/mL (≈ 0.653 µM); in the data set on C. albicans [3] (Candida albicans, 24 h, read-out: MIC50 (used for fluconazole) C. albicans R04) it was 0.2 µg/mL (≈ 0.653 µM). In addition, the MIC50 with C. albicans [3] (Candida albicans, ATCC90028, 24 h, read-out: MIC50 (used for fluconazole) C. albicans ATCC90028) amounted to 0.2 µg/mL (≈ 0.653 µM); in the data set on C. albicans [3] (Candida albicans, SC5314, 24 h, read-out: MIC50 (used for fluconazole) C. albicans SC5314), 50 µg/mL (≈ 163 µM); in the data set on C. neoformans [4] (read-out: MIC50 (row marked fluconazole*) C. neoformans H99) it was 6.3 µg/mL (≈ 20.6 µM); with C. neoformans [4] (read-out: MIC50 (row marked fluconazole*) C. neoformans JEC21) it was 12.5 µg/mL (≈ 40.8 µM); in the data set with C. neoformans [4] (read-out: MIC50 (row marked fluconazole*) C. neoformans MYA737) it was 6.3 µg/mL (≈ 20.6 µM); with C. albicans (R02 strain) (read-out: MIC50 after 30 passages), 1.6 µg/mL (≈ 5.22 µM). Moreover, the MIC50 with C. albicans (R02 strain) (read-out: MIC50 before passaging) was 0.2 µg/mL (≈ 0.653 µM). In the data set with C. albicans [3] (Candida albicans, read-out: MIC of fluconazole (complete inhibition), all strains of C. albicans), the MIC (as a rule, the smallest concentration in the dilution series that meets the test's criterion for growth inhibition) was > 200 µg/mL. Besides, in the data set on C. albicans (R02 strain) (C. albicans R02, continuous treatment with 0.5 × MIC50), the “Increase of MIC50 after 30 passages” value was “eightfolds”.
As for poly(DL‐diaminopropionic acid) [PDAP5], the “IC50 over six mammalian cell types (range)” value in the data set with various mammalian cells lay in the range of 340 to 800 µg/mL. Further, the “HC10 (concentration to cause 10% hemolysis)” value with human red blood cells came to 1000 µg/mL.
On to poly(DL‐diaminopropionic acid) [PDAP10], for which the “IC50 HUVEC” value in data set [5] was 675 µg/mL.
Consider polymyxin B, for which the “MIC E. coli” value with E. coli ATCC 25922 amounted to 0.2 µg/mL. For the same compound, in the data set with A. Baumannii ATCC 747, the “MIC A. baumannii” value turned out to be 0.2 µg/mL. The “MIC K. pneumoniae” value in data set [6] was determined as 0.8 µg/mL.
ε‐poly‐lysine [ε-PL]: the “MIC E. coli” value in the data set on E. coli ATCC 25922 was found to be 6.3 µg/mL. The “MIC S. epidermidis” value in data set [7] turned out to be 3.1 µg/mL. Besides, the “MIC A. baumannii” value with A. Baumannii ATCC 747 was determined as 6.3 µg/mL. In the data set with S. aureus ATCC 6538, the “MIC S. aureus” value amounted to 3.1 µg/mL. The “MIC B. subtilis” value in the data set with B. subtilis BR151 was determined as 1.6 µg/mL. The “MIC K. pneumoniae” value in [6] worked out at 6.3 µg/mL. Moreover, the “Effect of increasing K+ on antifungal activity” value in the data set on C. albicans [3] (K+ up to 20 × 10^−3 M, C. albicans K1) is reported as “didn't affect”. Besides, the “MIC C. albicans K1, standard MIC test in RPMI 1640” value against C. albicans [3] (Na+ 103 mM, K+ 5.4 mM) came out at 400 µg/mL. For the same compound, in the data set with C. albicans [3] (Na+ 150 mM, K+ 5.4 mM), the “MIC C. albicans K1, physiological salt concentration” value stood at 1600 μg/mL. For the same compound, the “MIC C. albicans K1, Na+ ↑” value against C. albicans [3] (Na+ 200 mM, K+ 5.4 mM) is > 1600 µg/mL. Moreover, in the data set with C. albicans [3] (approximate value printed in the design figure), the “MIC against C. albicans (Figure 1a)” value is reported as ~ 400 μg/mL. Further, the “MIC against three strains of C. albicans (range)” value in the data set with C. albicans [3] (range over three strains, Figure 2d) is 200 to 400 µg/mL. The “MIC against the six bacteria (summary)” value in data set [8] lay within 1.6 to 6.3 µg/mL.
